Laboratory results taken from ChEMBL document CHEMBL5365497, “Developing Novel Coumarin-Containing Azoles Antifungal Agents by the Scaffold Merging Strategy for Treating Azole-Resistant Candidiasis” (J Med Chem, 2023).
Values after ≈ are worked out from the molar mass of the structure shown.

Key:
Format in all cases: functional
Candida albicans [1] = test: Antifungal activity against Candida albicans CPCC400616 assessed as fungal growth inhibition by CLSI based microdilution method
Candida albicans [2] = test: Antifungal activity against Candida albicans SC5314 assessed as fungal growth inhibition by CLSI based microdilution method
Candida parapsilosis = test: Antifungal activity against Candida parapsilosis assessed as fungal growth inhibition by CLSI based microdilution method; details: Lodderomyces parapsilosis
Nakaseomyces glabratus = test: Antifungal activity against Candida glabrata assessed as fungal growth inhibition by CLSI based microdilution method
Pichia kudriavzevii = test: Antifungal activity against Pichia kudriavzevii assessed as fungal growth inhibition by CLSI based microdilution method
Candida tropicalis = test: Antifungal activity against Candida tropicalis assessed as fungal growth inhibition by CLSI based microdilution method
Cryptococcus neoformans = test: Antifungal activity against Cryptococcus neoformans assessed as fungal growth inhibition by CLSI based microdilution method
Candida albicans [3] = test: Antifungal activity against fluconazole-resistant Candida albicans CaR assessed as fungal growth inhibition by CLSI based microdilution method
Candida albicans [4] = test: Antifungal activity against fluconazole-resistant Candida albicans 17# assessed as fungal growth inhibition by CLSI based microdilution method
Candida albicans [5] = test: Antifungal activity against fluconazole-resistant Candida albicans 632 assessed as fungal growth inhibition by CLSI based microdilution method
Candida albicans [6] = test: Antifungal activity against fluconazole-resistant Candida albicans 904 assessed as fungal growth inhibition by CLSI based microdilution method
Candida albicans [7] = test: Antifungal activity against fluconazole-resistant Candida albicans 901 assessed as fungal growth inhibition by CLSI based microdilution method

| SMILES | MIC (Candida albicans [1]) [mg/L] | MIC (Candida albicans [2]) [mg/L] | MIC (Candida parapsilosis) [mg/L] | MIC (Nakaseomyces glabratus) [mg/L] | MIC (Pichia kudriavzevii) [mg/L] | MIC (Candida tropicalis) [mg/L] | MIC (Cryptococcus neoformans) [mg/L] | MIC (Candida albicans [3]) [mg/L] | MIC (Candida albicans [4]) [mg/L] | MIC (Candida albicans [5]) [mg/L] | MIC (Candida albicans [6]) [mg/L] | MIC (Candida albicans [7]) [mg/L] |
| --- | --- | --- | --- | --- | --- | --- | --- | --- | --- | --- | --- | --- |
| O=c1oc2ccc(Cl)cc2cc1COC(Cn1ccnc1)c1ccc(Cl)cc1Cl (configuration not stated) | 16 (≈ 35.6 µM) | 0.25 (≈ 0.556 µM) | 16 (≈ 35.6 µM) | 128 (≈ 285 µM) | 128 (≈ 285 µM) | 128 (≈ 285 µM) | 16 (≈ 35.6 µM) | – | – | – | – | – |
| O=c1oc2ccccc2cc1COC(Cn1cncn1)c1ccc(Cl)cc1Cl (configuration not stated) | 4 (≈ 9.61 µM) | 0.25 (≈ 0.601 µM) | 4 (≈ 9.61 µM) | 8 (≈ 19.2 µM) | 32 (≈ 76.9 µM) | 16 (≈ 38.4 µM) | 16 (≈ 38.4 µM) | – | – | – | – | – |
| O=c1oc2ccc(F)cc2cc1COC(Cn1ccnc1)c1ccc(Cl)cc1Cl (configuration not stated) | 0.5 (≈ 1.15 µM) | 0.25 (≈ 0.577 µM) | 0.5 (≈ 1.15 µM) | 2 (≈ 4.62 µM) | 2 (≈ 4.62 µM) | 64 (≈ 148 µM) | 0.5 (≈ 1.15 µM) | – | – | – | – | – |
| O=c1ccc2cc(COC(Cn3cncn3)c3ccc(Cl)cc3Cl)ccc2o1 (configuration not stated) | 4 (≈ 9.61 µM) | 0.25 (≈ 0.601 µM) | 2 (≈ 4.8 µM) | 32 (≈ 76.9 µM) | 16 (≈ 38.4 µM) | 32 (≈ 76.9 µM) | 32 (≈ 76.9 µM) | – | – | – | – | – |
| O=c1ccc2cc(COC(Cn3ccnc3)c3ccc(F)cc3F)ccc2o1 (configuration not stated) | 0.5 (≈ 1.31 µM) | 0.25 (≈ 0.654 µM) | 2 (≈ 5.23 µM) | 16 (≈ 41.8 µM) | 8 (≈ 20.9 µM) | 2 (≈ 5.23 µM) | 32 (≈ 83.7 µM) | 64 (≈ 167 µM) | 4 (≈ 10.5 µM) | 64 (≈ 167 µM) | 32 (≈ 83.7 µM) | 32 (≈ 83.7 µM) |
| COc1cccc2cc(COC(Cn3ccnc3)c3ccc(Cl)cc3Cl)c(=O)oc12 (configuration not stated) | 0.25 (≈ 0.561 µM) | 0.25 (≈ 0.561 µM) | 0.5 (≈ 1.12 µM) | 32 (≈ 71.9 µM) | 32 (≈ 71.9 µM) | 128 (≈ 287 µM) | 0.5 (≈ 1.12 µM) | – | – | – | – | – |
| O=c1ccc2ccccc2o1 [COUMARIN] | > 128 | > 128 | > 128 | > 128 | > 128 | > 128 | > 128 | > 128 | 128 (≈ 876 µM) | > 128 | > 128 | > 128 |
| O=c1oc2c(Cl)cc(Cl)cc2cc1COC(Cn1ccnc1)c1ccc(F)cc1F (configuration not stated) | > 128 | > 128 | > 128 | > 128 | > 128 | > 128 | 64 (≈ 142 µM) | – | – | – | – | – |
| C[C@@H](c1ncncc1F)[C@](O)(Cn1cncn1)c1ccc(F)cc1F [VORICONAZOLE] | – | – | – | – | – | – | – | > 128 | 128 (≈ 366 µM) | 64 (≈ 183 µM) | > 128 | > 128 |
| O=c1ccc2cc(COC(Cn3ccnn3)c3ccc(F)cc3F)ccc2o1 (configuration not stated) | > 128 | > 128 | 128 (≈ 334 µM) | > 128 | > 128 | > 128 | > 128 | – | – | – | – | – |
| O=c1oc2ccccc2cc1COC(Cn1ccnn1)c1ccc(Cl)cc1Cl (configuration not stated) | 128 (≈ 307 µM) | 128 (≈ 307 µM) | > 128 | > 128 | 128 (≈ 307 µM) | > 128 | 32 (≈ 76.9 µM) | – | – | – | – | – |
| O=c1oc2ccc(F)cc2cc1COC(Cn1ccnc1)c1ccc(F)cc1F (configuration not stated) | 1 (≈ 2.5 µM) | 1 (≈ 2.5 µM) | 0.5 (≈ 1.25 µM) | 2 (≈ 5 µM) | 4 (≈ 9.99 µM) | 8 (≈ 20 µM) | 0.5 (≈ 1.25 µM) | – | – | – | – | – |
| O=c1ccc2ccc(COC(Cn3cnnn3)c3ccc(Cl)cc3Cl)cc2o1 (configuration not stated) | > 128 | > 128 | 64 (≈ 153 µM) | 64 (≈ 153 µM) | > 128 | 128 (≈ 307 µM) | 32 (≈ 76.7 µM) | – | – | – | – | – |
| O=c1oc2ccc(Cl)cc2cc1COC(Cn1ccnc1)c1ccc(F)cc1F (configuration not stated) | 32 (≈ 76.8 µM) | 0.25 (≈ 0.6 µM) | 16 (≈ 38.4 µM) | 128 (≈ 307 µM) | 128 (≈ 307 µM) | 128 (≈ 307 µM) | 16 (≈ 38.4 µM) | – | – | – | – | – |
| O=c1ccc2cc(COC(Cn3ccnn3)c3ccc(Cl)cc3Cl)ccc2o1 (configuration not stated) | > 128 | 128 (≈ 307 µM) | 64 (≈ 154 µM) | 64 (≈ 154 µM) | 128 (≈ 307 µM) | 64 (≈ 154 µM) | 128 (≈ 307 µM) | – | – | – | – | – |
| O=c1oc2ccc([N+](=O)[O-])cc2cc1COC(Cn1ccnc1)c1ccc(Cl)cc1Cl (configuration not stated) | > 128 | 64 (≈ 139 µM) | > 128 | 128 (≈ 278 µM) | > 128 | > 128 | 128 (≈ 278 µM) | – | – | – | – | – |
| O=c1ccc2ccc(COC(Cn3cnnn3)c3ccc(F)cc3F)cc2o1 (configuration not stated) | > 128 | > 128 | 128 (≈ 333 µM) | 64 (≈ 167 µM) | 32 (≈ 83.3 µM) | 64 (≈ 167 µM) | 8 (≈ 20.8 µM) | – | – | – | – | – |
| O=c1oc2ccccc2cc1COC(Cn1ccnn1)c1ccc(F)cc1F (configuration not stated) | > 128 | 128 (≈ 334 µM) | > 128 | > 128 | 64 (≈ 167 µM) | > 128 | 64 (≈ 167 µM) | – | – | – | – | – |
| O=c1oc2ccccc2cc1COC(Cn1cncn1)c1ccc(F)cc1F (configuration not stated) | 8 (≈ 20.9 µM) | 0.25 (≈ 0.652 µM) | 2 (≈ 5.22 µM) | 8 (≈ 20.9 µM) | 16 (≈ 41.7 µM) | 64 (≈ 167 µM) | 32 (≈ 83.5 µM) | – | – | – | – | – |
| O=c1oc2ccc([N+](=O)[O-])cc2cc1COC(Cn1ccnc1)c1ccc(F)cc1F (configuration not stated) | > 128 | > 128 | 64 (≈ 150 µM) | 32 (≈ 74.9 µM) | 128 (≈ 300 µM) | 128 (≈ 300 µM) | 64 (≈ 150 µM) | – | – | – | – | – |
| COc1cccc2cc(COC(Cn3ccnc3)c3ccc(F)cc3F)c(=O)oc12 (configuration not stated) | 0.25 (≈ 0.606 µM) | 0.25 (≈ 0.606 µM) | 0.06 (≈ 0.145 µM) | 4 (≈ 9.7 µM) | 2 (≈ 4.85 µM) | 32 (≈ 77.6 µM) | 0.06 (≈ 0.145 µM) | – | – | – | – | – |
| O=c1oc2c(Cl)cc(Cl)cc2cc1COC(Cn1ccnc1)c1ccc(F)cc1 (configuration not stated) | > 128 | > 128 | > 128 | > 128 | > 128 | > 128 | 128 (≈ 295 µM) | – | – | – | – | – |
| O=c1ccc2cc(COC(Cn3cncn3)c3ccc(F)cc3F)ccc2o1 (configuration not stated) | 8 (≈ 20.9 µM) | 0.25 (≈ 0.652 µM) | 4 (≈ 10.4 µM) | 16 (≈ 41.7 µM) | 32 (≈ 83.5 µM) | 64 (≈ 167 µM) | 64 (≈ 167 µM) | – | – | – | – | – |
| O=c1oc2c(Cl)cc(Cl)cc2cc1COC(Cn1ccnc1)c1ccc(Cl)cc1Cl (configuration not stated) | > 128 | 128 (≈ 264 µM) | > 128 | > 128 | > 128 | > 128 | 16 (≈ 33 µM) | – | – | – | – | – |
| CCC(C)n1ncn(-c2ccc(N3CCN(c4ccc(OCC5COC(Cn6cncn6)(c6ccc(Cl)cc6Cl)O5)cc4)CC3)cc2)c1=O (configuration not stated) [ITRACONAZOLE] | – | – | – | – | – | – | – | 64 (≈ 90.7 µM) | 128 (≈ 181 µM) | 64 (≈ 90.7 µM) | > 128 | > 128 |
| O=c1ccc2cc(COC(Cn3cnnn3)c3ccc(F)cc3F)ccc2o1 (configuration not stated) | 1 (≈ 2.6 µM) | 2 (≈ 5.2 µM) | 16 (≈ 41.6 µM) | 16 (≈ 41.6 µM) | 128 (≈ 333 µM) | 0.5 (≈ 1.3 µM) | 64 (≈ 167 µM) | – | – | – | – | – |
| OB1OCc2cc(F)ccc21 [TAVABOROLE] | – | – | – | – | – | – | – | 16 (≈ 105 µM) | 32 (≈ 211 µM) | 16 (≈ 105 µM) | 16 (≈ 105 µM) | 32 (≈ 211 µM) |
| O=c1ccc2ccc(COC(Cn3ccnn3)c3ccc(F)cc3F)cc2o1 (configuration not stated) | > 128 | > 128 | > 128 | 128 (≈ 334 µM) | > 128 | 4 (≈ 10.4 µM) | > 128 | – | – | – | – | – |
| O=c1ccc2cc(COC(Cn3cnnn3)c3ccc(Cl)cc3Cl)ccc2o1 (configuration not stated) | 1 (≈ 2.4 µM) | 2 (≈ 4.79 µM) | 32 (≈ 76.7 µM) | 16 (≈ 38.3 µM) | 64 (≈ 153 µM) | 32 (≈ 76.7 µM) | 128 (≈ 307 µM) | – | – | – | – | – |
